Measured values reported in patent publication US20220202882A1, “EFFECT OF COMBINATION OF BIFIDOBACTERIUM AND BERBERINE ON PRE-DIABETES AND TYPE 2 DIABETES” (The Fourth Military Medical University, priority 2018, published 2022).
Counter-ions that a name gives are not always drawn.

System: pre-diabetic and type 2 diabetes mellitus patients
Test: Clinical trial: adverse events (safety evaluation)
Format: in vivo, human
Description: From June 2015 to October 2018, a double-blind, randomized, and parallel-controlled trial, studying the effects of the combined use of Bifidobacterium and berberine on pre-diabetic and type 2 diabetes mellitus patients, was conducted in 10 research centers in Xi'an, Yan'an and Shangluo of Shaanxi province, etc., including the First Affiliated Hospital of the Fourth Military Medical University.
The trial included an enrollment stage of 2 weeks and a treatment stage of 16 weeks. After passing the first visit 1 (see V1 in Table 1), the subjects entered the enrollment stage, i.e., 2 weeks of lifestyle intervention, followed by a re-screening (see V2 in Table 1). The subjects were subjected to a 16-week course of treatment after passing the screening. See Table 1 for the detailed screening parameters.
After the enrollment stage, the baseline data of the 300 successfully enrolled subjects were collected. Meanwhile, the subjects started to receive lifestyle guidance, and were randomly divided into four groups for 16 weeks of treatments.
1) Bifidobacterium group: the subjects were administered with Bifidobacterium capsules (Livzon Pharmaceutical Group Inc., batch no.: 20141013), 0.35 g/capsule, each capsule containing 50,000,000 viable bacteria (Bifidobacterium adolescentis DM8504), 2 capsules/time, 2 times/day, plus berberine placebo tablets (Northeast Pharma Group Shenyang First Pharma Co., Ltd., Lot no.: 20150101, containing 80.2% microcrystalline cellulose, 9.4% pregelatinized starch, 6.4% sodium carboxymethyl starch, 1% magnesium stearate, and 3% copovidone), 0.1 g/tablet, 5 tablets/time, 2 times/day.
2) Berberine group: the subjects were administered with berberine tablets (Northeast Pharma Group Shenyang First Pharma Co., Ltd., Lot no.: 130917, each tablet weighted 0.165 g and contained 0.1 g active berberine ingredient (berberine hydrochloride), with the same excipients as the placebo tablets), 5 tablets/time, 2 times/day, plus Bifidobacterium placebo capsules (Livzon Pharmaceutical Group Inc., Lot no.: 141001, specifically containing 0.348 g spray-dried lactose, and 0.002 g magnesium stearate), 0.35 g/capsule, 2 capsules/time, 2 times/day.
3) Combination Group: the subjects were administered with Bifidobacterium capsules, 0.35 g/capsule, each capsule containing 50,000,000 viable bacteria (B. adolescentis DM8504), 2 capsules/time, 2 times/day, plus berberine tablets, 0.1 g/tablet, each tablet containing 0.1 g active berberine ingredient (berberine hydrochloride), 5 tablets/time, 2 times/day.
4) Control group: the subjects were administered with Bifidobacteria placebo capsules, 0.35 g/capsule, 2 capsules/time, 2 times/day, plus berberine placebo tablets, 0.1 g/tablet, 5 tablets/time, 2 times/day.
Bifidobacterium capsules were taken after meals and berberine tablets were taken before meals.
After the sample testing was finished, 1) Chi-Squared test and t-test were used to evaluate the intergroup balance of the baseline data including the demographic characteristics and pre-treatment indicators, wherein the baseline data referred to those collected at the second visit, before the formal administration, the data collected at the first visit on the enrollment stage were used instead if the data at the second visit was lacking; 2) two-way disordered CM-CH11, Kruska-Wilcox test, etc. were used for analysis and intergroup comparison of pre- and post-treatment indicators such as fasting plasma glucose (FPG), HbA1c, plasma glucose at 2 hours post OGTT (2-h PPG), blood pressure, blood lipids, body weight and BMI; 3) adverse events and hypoglycemia events were described in terms of the type, frequency and relevance with the drugs, for safety evaluation. Software SAS 9.1.3 was used for statistical analysis with all analysis processes being programmed.
All subjects who followed the intent-to-treat principle, grouped randomly, and received the treatment trial and at least one efficacy evaluation were included in the full Analysis Set (FAS). […]

| Compound | Adverse event rate (human, in vivo) [%] | Event rate of adverse events correlated with medications (human, in vivo) [%] | Number of adverse events correlated with medications (abdominal discomfort, abnormal bowel movement) (human, in vivo) | Number of adverse events reported (human, in vivo) | Number of subjects with adverse events (human, in vivo) | Number of subjects with adverse events correlated with medications (human, in vivo) | Adverse event rate (throughout the trial) [%] | Event rate of adverse events correlated with medications (throughout the trial) [%] | Number of adverse events correlated with medications (abdominal discomfort, abnormal bowel movement) (throughout the trial) | Number of subjects with adverse events (throughout the trial) | Number of subjects with adverse events correlated with medications (throughout the trial) |
| --- | --- | --- | --- | --- | --- | --- | --- | --- | --- | --- | --- |
| Bifidobacterium | 84 | 21.0 | 30 | 203 | 84 | 21 | – | – | – | – | – |
| COc1ccc2cc3[n+](cc2c1OC)CCc1cc2c(cc1-3)OCO2 [Berberine, berberine hydrochloride] | – | – | – | – | – | – | 81.63 | 18.37 | 19 | 40 | 9 |
